Experimental data published in patent US20240246954A1, “COMPOSITIONS AND METHODS FOR INHIBITING KRAS” (TheRas, Inc., priority 2021, published 2024).
Where two headings read alike, the source gives them in different places.

How the values were obtained:
[1] = system: pERK in GP2d cells (KRAS G12D); experiment: Cell-based pERK HTRF assay; settings: 60 min incubation
Experimental: Biological Example 3. Cell-Based pERK HTRF Assay
pERK assay (Perkin Elmer) was used to determine the effectiveness of compounds in disrupting KRAS G12D protein/effector signaling in cells.
On Day 1, cells (GP2d) were seeded into 96-well plates at 3×10^4 cells/well in 80 μl complete growth media (DMEM, 10% FBS).
On Day 2, cells were treated with compounds at 0.25% DMSO. The source plate was created with compounds diluted in media at 5-fold the final assay concentration. The compounds were run in a 9-point concentration curve starting at 1 μM, with a half-log dilution between concentrations. 20 μL was transferred onto the cell plates (final volume in wells was 100 μL). Plates were harvested after 60 min incubation by aspirating media and adding kit-supplied 1× supplemented lysis buffer to all wells (50 μl per well). Plates were then placed on a plate shaker and incubated at 850 rpm for an additional 30 min.
Antibody mixture solution is prepared by diluting aliquoted d2 and Eu Cryptate antibodies 1:20 in kit supplied detection buffer, mix the diluted antibodies solutions (1:1 v:v). Four μL of this solution is then added to a 384-well detection plate (Perkin Elmer; 6008230).
Samples were homogenized by pipetting up and down and then transferred (16 μL of cell lysates) from the 96-well cell culture plate to two wells of the HTRF 384-well detection plate containing the antibody solution. Plates were centrifuged (524 g for 1 min) and allowed to incubate between 4 and 24 h at room temperature. Maximum signal is reached after 4 h incubation time and remains stable over a period of 24 hours. Therefore, readings can be made between 4 and 24 h of incubation. Plates were centrifuged again (524 g for 1 min), then analyzed on the EnVision plate reader using the following settings: Excitation 320 nm, Bandwidth 75 nm; Emission 615 nm, Bandwidth 85 nm; Gain 100%; Flashes 100; Lag 60 μs.

[2] = molecular target: T1, Avi-KRAS G12D (1-169) GppNHp/RAF1 RBD-3×FLAG (52-151) (Homo sapiens, UniProt P01116, G12D); experiment: HTRF Raf1-KRAS G12D-GppNHp disruption assay; format: biochemical; settings: 1 h incubation
T1 construct: Avi-KRAS G12D (1-169) GppNHp
Outline: (§1)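 Compounds titrated from 100 μM in a 10-point series, incubated with protein mix 1 h at room temperature, then HTRF reagents a further 1 h. Time-resolved fluorescence read (excitation 320 nm, emission 615 nm); activity expressed as percentage of DMSO control.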

[3] = molecular target: T2, Avi-KRAS G12D/Q25A (1-169) GppNHp/3×FLAG-PI3KCA (157-299) (Homo sapiens, UniProt P01116, G12D/Q25A); experiment: HTRF PI3KCA-KRAS G12D/Q25A-GppNHp disruption assay; format: biochemical; settings: 1 h incubation
T2 construct: Avi-KRAS G12D/Q25A (1-169) GppNHp
Outline: as §1

T1 sequence (P01116 1-169 isoform P01116-2 G12D limits assumed): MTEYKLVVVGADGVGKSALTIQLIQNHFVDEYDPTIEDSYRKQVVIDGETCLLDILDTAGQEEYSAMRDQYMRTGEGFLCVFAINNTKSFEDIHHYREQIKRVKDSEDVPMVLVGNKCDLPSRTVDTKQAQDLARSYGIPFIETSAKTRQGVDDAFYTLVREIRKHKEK
T2 sequence (P01116 1-169 isoform P01116-2 G12D/Q25A limits assumed): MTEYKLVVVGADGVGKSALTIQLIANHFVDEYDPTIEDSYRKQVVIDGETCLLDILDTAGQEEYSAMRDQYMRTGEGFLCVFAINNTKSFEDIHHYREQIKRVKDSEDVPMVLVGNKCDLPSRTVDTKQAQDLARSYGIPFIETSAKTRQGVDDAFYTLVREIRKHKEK

| Compound | IC50 ([1]; GP2d, 1 h) | IC50 [2] | IC50 [3] | IC50 ([1]; read-out: pERK-Gp2D-1hr) |
| --- | --- | --- | --- | --- |
| CN(c1nc(OCC23CCCN2CCC3)nc2c(F)c(-c3ccc(F)c4sc(N)nc34)c(C(F)(F)F)cc12)[C@@H]1CCN(C(=O)CN)C1 (atropisomer, axis not shown) [Compound 276] | > 1000 nM | 100 to 1000 nM | 1000 to 10000 nM |  |
| CN(c1nc(OCC23CCCN2CCC3)nc2c(F)c(-c3ccc(F)c4sc(N)nc34)c(C(F)(F)F)cc12)[C@@H]1CCNC1 (single isomer, unassigned) [Compound 236] | > 1000 nM | 100 to 1000 nM | 100 to 1000 nM |  |
| N#Cc1c(N)sc2c(F)ccc(-c3c(C(F)(F)F)cc4c(N5CC6CCC(C5)N6)nc(OC[C@@]56CCCN5C[C@H](F)C6)nc4c3F)c12 (single isomer, unassigned) [Compound 366] | ≤ 100 nM | ≤ 100 nM | ≤ 100 nM |  |
| N#Cc1c(N)sc2c(F)ccc(-c3c(C(F)(F)F)cc4c(N5CC6CCC(C5)N6)nc(OC[C@@]56CCCN5C[C@H](F)C6)nc4c3F)c12 (single isomer, unassigned) [Compound 367] |  | 1000 to 10000 nM | 1000 to 10000 nM | 100 to 1000 nM |
| CN(c1nc(OC[C@@]23CCCN2C[C@H](F)C3)nc2c(F)c(-c3ccc(F)c4sc(N)nc34)c(C(F)(F)F)cc12)C1CCNC1 (stereo in doubt) [Compound 322, 7-fluoro-4-(8-fluoro-2-(((2R,7aS)-2-fluorotetrahydro-1H-pyrrolizin-7a(5H)-yl)methoxy)-4-(methyl((R)-pyrrolidin-3-yl)amino)-6-(trifluoromethyl)quinazolin-7-yl)benzo[d]thiazol-2-amine] | 100 to 1000 nM | 100 to 1000 nM | 1000 to 10000 nM |  |
| N#CCc1cc2c(NC3CNC3)nc(OCC34CCCN3CCC4)nc2c(F)c1-c1ccc(F)c2sc(N)nc12 [Compound 126] | > 1000 nM | 1000 to 10000 nM | 1000 to 10000 nM |  |
| NCC(=O)N1CCN(c2nc(OCC34CCCN3CCC4)nc3c(F)c(-c4ccc(F)c5sc(N)nc45)c(C(F)(F)F)cc23)CC1 [Compound 127] | > 1000 nM | 100 to 1000 nM | 1000 to 10000 nM |  |
| CN1CCC[C@H]1COc1nc(NC2CNC2)c2cc(C(F)(F)F)c(-c3ccc(F)c4sc(N)nc34)c(F)c2n1 [Compound 129] | > 1000 nM | 100 to 1000 nM | 1000 to 10000 nM |  |
| CN1CCC[C@H]1COc1nc(NC2CNC2)c2cc(-c3ccoc3)c(-c3ccc(F)c4sc(N)nc34)c(F)c2n1 [Compound 133] | > 1000 nM | 100 to 1000 nM | 1000 to 10000 nM |  |
| CN1C[C@H](F)C[C@H]1COc1nc(N2C[C@H]3NCC[C@H]32)c2cc(C(F)(F)F)c(-c3ccc(F)c4sc(N)nc34)c(F)c2n1 [Compound 174] | > 1000 nM | 1000 to 10000 nM |  |  |
| Nc1nc2c(-c3c(Cl)cc4c(N5CC6CC(C5)N6)nc(OCC56CCCN5CCC6)nc4c3F)ccc(F)c2s1 [Compound 184, 4-(4-(3,6-diazabicyclo[3.1.1]heptan-3-yl)-6-chloro-8-fluoro-2-((tetrahydro-1H-pyrrolizin-7a(5H)-yl)methoxy)quinazolin-7-yl)-7-fluorobenzo[d]thiazol-2-amine] | > 1000 nM | 100 to 1000 nM | 1000 to 10000 nM |  |
| Nc1nc2c(-c3c(C(F)(F)F)cc4c(N5CC6CC(C5)N6)nc(OCC56CCCN5CCC6)nc4c3F)ccc(F)c2s1 [Compound 185] | 100 to 1000 nM | 100 to 1000 nM | 100 to 1000 nM |  |
| NCC(=O)N1CC(Nc2nc(OCC34CCCN3CCC4)nc3c(F)c(-c4ccc(F)c5sc(N)nc45)c(C(F)(F)F)cc23)C1 [Compound 187] | > 1000 nM | 100 to 1000 nM | 1000 to 10000 nM |  |
| NC(=O)N1CC(Nc2nc(OCC34CCCN3CCC4)nc3c(F)c(-c4ccc(F)c5sc(N)nc45)c(C(F)(F)F)cc23)C1 [Compound 188] | > 1000 nM | 100 to 1000 nM | 1000 to 10000 nM |  |
| Nc1nc2c(-c3c(C(F)(F)F)cc4c(NC5CNC5)nc(OCC56CCCN5CCC6)nc4c3F)ccc(F)c2o1 [Compound 199] | > 1000 nM | 100 to 1000 nM | 1000 to 10000 nM |  |
| C[C@@H]1CN(c2nc(OC[C@@]34CCCN3C[C@H](F)C4)nc3c(F)c(-c4ccc(F)c5sc(N)nc45)c(C(F)(F)F)cc23)[C@@H](C)CN1 [Compound 207] | ≤ 100 nM | 100 to 1000 nM | 1000 to 10000 nM |  |
| Nc1nc2c(-c3c(C(F)(F)F)cc4c(N5CC6CCC(C5)N6)nc(OC[C@@]56CCCN5C[C@H](F)C6)nc4c3F)ccc(F)c2o1 [Compound 220, 4-(4-(3,8-diazabicyclo[3.2.1]octan-3-yl)-8-fluoro-2-(((2R,7aS)-2-fluorotetrahydro-1H-pyrrolizin-7a(5H)-yl)methoxy)-6-(trifluoromethyl)quinazolin-7-yl)-7-fluorobenzo[d]oxazol-2-amine] | ≤ 100 nM | 100 to 1000 nM | 100 to 1000 nM |  |
| Nc1nc2c(-c3c(C(F)(F)F)cc4c(N5CC6CCC5CN6)nc(OC[C@@]56CCCN5C[C@H](F)C6)nc4c3F)ccc(F)c2s1 (some centres unmarked) [Compound 223] | ≤ 100 nM | 100 to 1000 nM | 100 to 1000 nM |  |
| Nc1nc2c(-c3c(C(F)(F)F)cc4c(N5CC6CC5CN6)nc(OC[C@@]56CCCN5C[C@H](F)C6)nc4c3F)ccc(F)c2s1 (some centres unmarked) [Compound 226] | ≤ 100 nM | 100 to 1000 nM | 100 to 1000 nM |  |
| Nc1nc2c(-c3c(OC(F)(F)F)cc4c(N5CC6CCC(C5)N6)nc(OC[C@@]56CCCN5C[C@H](F)C6)nc4c3F)ccc(F)c2s1 [Compound 232] | ≤ 100 nM | 100 to 1000 nM | 10000 to 30000 nM |  |
| Nc1nc2c(-c3c(C(F)(F)F)cc4c(NC5CNC5)nc(OC[C@@]56CCCN5C[C@H](F)C6)nc4c3F)ccc(F)c2s1 [Compound 247] | > 1000 nM | 100 to 1000 nM | 100 to 1000 nM |  |
| Nc1nc2c(-c3c(C(F)(F)F)cc4c(N5C[C@H]6CC[C@@H](C5)N6)nc(OCC5(CN6CCOCC6)CC5)nc4c3F)ccc(F)c2s1 [Compound 251, 4-(4-((1R,5S)-3,8-diazabicyclo[3.2.1]octan-3-yl)-8-fluoro-2-((1-(morpholinomethyl)cyclopropyl)methoxy)-6-(trifluoromethyl)quinazolin-7-yl)-7-fluorobenzo[d]thiazol-2-amine] | ≤ 100 nM | 100 to 1000 nM | 1000 to 10000 nM |  |
| Nc1nc2c(-c3c(C(F)(F)F)cc4c(N5CC6CCC(C5)N6)nc(OCC5(CN6CC[C@@H](F)C6)CC5)nc4c3F)ccc(F)c2s1 [Compound 252] | ≤ 100 nM | 100 to 1000 nM | 100 to 1000 nM |  |
| Nc1nc2c(-c3c(C(F)(F)F)cc4c(N5CCC6(CCNC6)CC5)nc(OCC56CCCN5CCC6)nc4c3F)ccc(F)c2s1 [Compound 308] |  | 100 to 1000 nM | 1000 to 10000 nM |  |
| CN(c1nc(OC[C@@]23CCCN2C[C@H](F)C3)nc2cc(-c3ccc(F)c4sc(N)nc34)c(C(F)(F)F)cc12)[C@H]1CNC[C@@H]1F [Compound 362] |  | 10000 to 30000 nM | 10000 to 30000 nM |  |
| Fc1c(-c2ccc(F)c3scnc23)c(C(F)(F)F)cc2c(N3CC4CCC(C3)N4)nc(OCC34CCCN3CCC4)nc12 [Compound 375] |  | 10000 to 30000 nM | 10000 to 30000 nM |  |
